Counter-ions that a name gives are not always drawn. Like-named read-outs stand apart in the source and are kept apart here.
Tests used:
[1] = Aerosol performances by Andersen Cascade Impactor (Eur. Pharm. 2.09.18), HPLC quantification; type: physicochemical; conditions: Example 5 formulation, mean n = 2; for Delivered Dose: 63 μl valve, nominal 6 μg formoterol / 50 μg BDP per actuation; for Fine particle dose: ACI S3 to filter, particles ≦4.7 microns; for Fine particle fraction: ratio respirable dose / delivered dose
Procedure: This formulation was filled into an aluminum canister under pressure and fitted with a metering valve having a 63 μl metering chamber.
Quantification of beclometasone dipropionate (BDP) and formoterol fumarate dehydrate (FF) was performed using a HPLC method. The following parameters were determined: • i) delivered dose is calculated from the cumulative deposition in the ACI, divided by the number of actuations per experiment; • ii) respirable dose (fine particle dose=FPD) is obtained from the deposition from Stages 3 (S3) to filter (AF) of the ACI, corresponding to particles of diameter ≦4.7 microns, divided by the number of actuations per experiment; • iii) respirable fraction (fine particle fraction=FPF) which is the percent ratio between the respirable dose and the delivered dose; • iv) mass median aerodynamic diameter (MMAD) which is the diameter around which the mass aerodynamic diameters of the emitted particles are distributed equally; and • v) Geometric standard deviation (GSD) which is a measure of the spread of the aerodynamic particle size distribution.

[2] = Storage (chemical) stability of HFA134a/ethanol pMDI solution; type: physicochemical; conditions: BDP in ethanol/HFA134a mixture, room temperature
Procedure: However, although it has the apparent pH adjusted according to the teaching of WO 01/89480 for improving its chemical stability, due to the limited stability of formoterol in solution, said formulation can be stored for no longer than 15 months at a refrigerator temperature (from +2 to +8° C.) and for no longer than 5 months at room temperature.

Structure (SMILES): CCC(=O)OCC(=O)[C@@]1(OC(=O)CC)[C@@H](C)C[C@H]2[C@@H]3CCC4=CC(=O)C=C[C@]4(C)[C@@]3(Cl)[C@@H](O)C[C@@]21C [BDP, (8S,9R,10S,11S,13S,14S,16S,17R)-9-chloro-11-hydroxy-10,13,16-trimethyl-3-oxo-17-[2-(propionyloxy)acetyl]-6,7,8,9,10,11,12,13,14,15,16,17-dodecahydro-3H-cyclopenta[a]phenanthren-17-yl propionate]
- Delivered Dose [1]: 46.0 µg
- Fine particle dose [1]: 30.0 µg
- GSD [1]: 2.2
- MMAD [1]: 1.1 μm
- Fine particle fraction [1]: 64.0%
- storage time without significant degradation [2]: at least 35 months

Structure (SMILES): COc1ccc(C[C@@H](C)NC[C@H](O)c2ccc(O)c(NC=O)c2)cc1 (racemic) [formoterol fumarate dihydrate, 2′-hydroxy-5′-[(RS)-1-hydroxy-2{[(RS)-p-methoxy-α-methylphenethyl]amino}ethyl]formanilide]
- Delivered Dose [1]: 3.9 µg
- Fine particle dose [1]: 2.3 µg
- GSD [1]: 1.5
- MMAD [1]: 2.0 μm
- Fine particle fraction [1]: 59.3%
- change of formoterol fumarate dihydrate solubility in the presence of BDP (HFA227:ethanol 92.5:7.5 (w/w)): does not change
- change of formoterol fumarate dihydrate solubility in the presence of BDP (HFA227:ethanol 97.3:2.7 (w/w)): does not change
